The values below come from patent US10945938B2, “Lactone-containing compositions for malodor elimination” (Takasago International Corporation, priority 2014, dated 2021).

A short description of assay [1]: Methyl mercaptan suppression analysis by GC-PFPD, aqueous conditions (Examples 1-4). The conditions noted are these: for Methyl Mercaptan Suppression (%): ethanol/deionized water, about 10 ppm methyl mercaptan sodium salt, room temperature 2 hours, replicate values; for suppression of the amount of methyl mercaptan (in words): lactone alone, 100 or 200 ppm, aqueous conditions, Tables 1-4. The text has this: (§1) Methyl mercaptan suppression analysis was used to evaluate malodor elimination effects of the compounds. Methyl mercaptan is known to be a major oral malodor material. For example, methyl mercaptan is found in the oral cavity of halitosis patients and also found in malodor producing food products (e.g., garlic). A multipurpose sampler (MPS 2, Gerstel Inc, Baltimore Md.)—Gas Chromatography (6890N, Agilent Technologies Inc, Wilmington Del.) with the Pulsed Flame Photometric Detector (PFPD, model 5380, OI Analytical, College Station, Tx) was used for the methyl mercaptan analysis. 0.5% (w/v) sodium thiomethoxide, which is a sodium salt of methyl mercaptan (purchased from Aldrich chemical company, Inc. Allentown, Pa.) in deionized water was used as the methyl mercaptan stock solution, which was freshly prepared for every test day.
200 ppm or 100 ppm lactone (36 μl of 1% (200 ppm) or 0.5% (100 ppm) (w/v) of the test malodor eliminating compounds in 200 proof ethanol), 144 μl of 200 proof ethanol, and 1620 μl of deionized water were added into a 2 ml GC vial. The prepared vial was placed on a sample tray of the multipurpose sampler-GC-PFPD. 3.6 μl of methyl mercaptan stock solution was added in the GC vial using the multipurpose sampler, and the GC vial was left to sit at room temperature for 2 hours. 0.4 μl of the test solution was injected into the GC inlet (an Agilent tapered focus liner with glass wool was installed, split mode, 10:1 split ratio) using the multipurpose sampler. The carrier gas flow rate was 1.5 ml/min (in constant flow mode) and the Agilent DB-1MS UI column (L60 m×ID 0.250 mm×thickness 0.25 μm) was used for the analysis. […] The GC oven was held at 280° C. for 5 minutes. Ethanol alone was used as a blank control. The final concentration of test malodor eliminating compounds were 200 ppm or 100 ppm, and final methyl mercaptan sodium salt concentration was about 10 ppm.
Malodor (methyl mercaptan) suppression was calculated as follows: Malodor (methyl mercaptan) Suppression (%)=(GC area of blank control sample−GC area of test sample)/GC area of blank control sample×100.

A short description of assay [2]: Methyl mercaptan suppression analysis by GC-PFPD, non-aqueous (ethanol) conditions (Examples 5-9). The conditions noted are these: for Methyl Mercaptan Suppression (%): 200 proof ethanol, 10 ppm methyl mercaptan sodium salt, room temperature 2 hours.
Text: as §1
For the screening test, 100 ppm lactone (20 μl of 0.5% of lactone in 200 proof ethanol (w/v)), 300 ppm lactone (30 μl of 1% of lactone in 200 proof ethanol (w/v)), 200 ppm phenolic compound (20 μl of 1% of phenolic compound in 200 proof ethanol (w/v)) and 300 ppm phenolic compound (30 μl of 1% of phenolic compound in 200 proof ethanol (w/v)) were tested. In addition, various combinations of a lactone and a phenolic compound were tested. The lactones and phenolic compounds were pipetted into 2 ml GC vials, and 200 proof ethanol was added up to 1000 μl. The prepared vial was placed on a sample tray of the multipurpose sampler-GC-PFPD. 2 μl methyl mercaptan stock solution was added in the GC vial utilizing the multipurpose sampler, and the vial was left to sit at room temperature for 2 hours. 0.4 μl of the test solution was injected into the GC inlet (an Agilent tapered focus liner with glass wool was installed, split mode, 10:1 split ratio) using the multipurpose sampler. The carrier gas flow rate was 1.5 ml/min (in constant flow mode) and the Agilent DB-1 MS UI column (L60 m×ID 0.250 mm×thickness 0.25 μm) was used for the analysis. The temperature of the GC oven started at 40° C. and after 5 minutes, the temperature was increased to 180° C. at a speed of 20° C./min, and subsequently to 280° C. at a speed of 40° C./min, which was held for 5 minutes.
200 proof ethanol alone was used as a blank control. The final concentration of the methyl mercaptan sodium salt was 10 ppm.
Malodor (methyl mercaptan) suppression was calculated as follows: Malodor (methyl mercaptan) Suppression (%)=(GC area of blank control sample−GC area of test sample)/GC area of blank control sample×100.

The mark [3] stands for this setting: 200 ppm test compound alone, values of several testing sets.
Where [4] appears, read: 300 ppm test compound alone, replicate values.

Several values for one entry are separate records, joined by “and”; a condition that tells them apart may be missing. Equal values may be shown once.

As to `O=C1C=CCO1` [2(5H) furanone], in assay [1] (100 ppm test compound alone), the “Methyl Mercaptan Suppression (%)” value was 97% and 95% and 100%. For the same compound, the “suppression of the amount of methyl mercaptan (in words)” value (“suppression of the amount … (in words)” below) in assay [1] was “suppressed the amount of methyl mercaptan”.
As to `CCCCOCc1ccc(O)c(OC)c1` [Hotact ®VBE, vanillyl butyl ether], the “Methyl Mercaptan Suppression (%)” value is 13% and 7% and 8% and 10% and 12% and 17% in assay [2] (setting [3]); 13% (2×) and 10% in assay [2] (setting [4]).
Regarding `CC1=CCC(=O)O1` [angelica lactone alpha], the “Methyl Mercaptan Suppression (%)” value was 47% and 31% and 69% in assay [1] (100 ppm test compound alone); 94% and 93% and 86% in assay [1] (200 ppm test compound alone); 32% and 22% and 30% in assay [2] (setting [4]). Further, the “suppression of the amount … (in words)” value in assay [1] is “suppressed the amount of methyl mercaptan”.
Turning to `CC1C=CC(=O)O1` (stereo not drawn) [angelica lactone beta], the “Methyl Mercaptan Suppression (%)” value in assay [1] (100 ppm test compound alone) was 10% and 26% and 41%. Besides, the “suppression of the amount … (in words)” value in assay [1] is listed as “suppressed the amount of methyl mercaptan”.
With `O=C1O[C@H]([C@@H](O)CO)C(O)=C1O` [ascorbic acid, reference compound], in assay [2] (setting [3]), the “Methyl Mercaptan Suppression (%)” value amounted to 11%. The “synergistic malodor suppression or elimination effect of the combination with a phenolic compound (in words)” value in assay [2] (ethanol conditions, combination compared with additive effect of single components) is “do not exhibit a synergistic malodor elimination effect when combined with phenolic compounds”.
As for `C=CCc1ccc(O)c(OC)c1` [eugenol], the “Methyl Mercaptan Suppression (%)” value in assay [2] (setting [4]) is 8% and 14% and 11%.
Still for that read-out and setting: in the case of `COC(=O)c1ccccc1O` [methyl salicylate] it was 9% and 10% and 8%.
On to `CC1=C2CCC(C)CC2OC1=O` (stereo not shown) [mint lactone], for which the “Methyl Mercaptan Suppression (%)” value in assay [1] (200 ppm test compound alone) was 87% and 100% (2×). The “suppression of the amount … (in words)” value in assay [1] was “suppressed the amount of methyl mercaptan”.
